Source: patent publication US7619005B2, “Methods for treating cognitive impairment in humans with Multiple Sclerosis” (Cognition Pharmaceuticals LLC, priority 2000, dated 2009)
Values joined by “and” are separate entries in the source; they are usually repeats but may differ in a detail not shown here. Equal entries are not always repeated.

Assays:
[1] = system: rats with bilateral lesions of the fornix; assay: Inhibitory Avoidance task, fornix lesion rats; details: for latency to enter the dark side of the apparatus: Fornix lesion rats, each animal
Procedure: (§1) Two seconds after entering the dark chamber, a continuous 0.46 mA foot-shock was delivered through the floor grid for two seconds. The animal was then removed from the apparatus and returned to the home cage. The animals received a retention test 24 hours following training. The retention test was identical to training except that no foot-shock was delivered. […] Data was collected by the Graphic State™ Notation software, and was recorded onto an appropriate data sheet.

[2] = system: Long-Evans rats; assay: Passive Avoidance test, injection immediately after training; details: i.p. immediately after training; p values=0.007 (C105), 0.0004 (d-amphetamine), 0.03 (SN522)
[3] = system: rats; assay: Activity monitoring, open-field box, 10 minutes; details: 2 mg/kg; entire 10 minute session (FIG. 7)
Procedure: Activity monitoring was conducted in a Plexiblas open-field box. Activity levels were measured by a grid of infrared light beams that traversed the cage from left to right and back to front. The location of the animal was detected by breaks in the infrared light beams. General behavior and activity levels were recorded by a computerized monitoring system for a period of ten minutes. The analyzed behaviors included but were not limited to; horizontal activity, total distance moved, movement time, number of movements, number of rears, number of stereotyped movements, and time spent resting. Data was collected on-line using Versa Max (Version 1.83) computer software and a Hewlett Packard Pavilion computer.

[4] = system: Long-Evans rats; assay: Locomotor activity, activity monitoring chambers; type: in vivo, rat; details: higher doses (0.5, 2.5, 5.0 mg/kg ip) (FIG. 24)
Procedure: Activity monitoring was conducted in a Plexiglas open-field box measuring 30 by 30 cm. […] The location of the animal within the cage was detected by breaks in the infrared light beams. Light beams status information was collected and rapidly analyzed by a computerized activity monitoring system (VersaMax System, Accuscan Instruments.)
In order to determine whether SN522 had any adverse effects on locomotor or exploratory activity, rats were injected with saline or 0.25, 0.5, 2.5 and 5.0 mg/kg of SN522 and immediately afterwards placed into the activity monitoring chambers for a period of three hours.

[5] = system: rats; assay: Inhibitory Avoidance task, normal rats
Procedure: The paradigms consists of one training trial and one retention trial. Test substances may be administered to the rats either before or after training. Improved memory, as a result of test substance administration, is evident on the retention trial.
as §1

[6] = system: scopolamine treated rats; assay: Passive Avoidance in scopolamine treated rats (memory impairment); type: in vivo, rat
[7] = system: rats; assay: Tail-Flick Analgesia Testing (C105); type: in vivo, rat; design: Tail-Flick Analgesia (latency to flick tail): unit not given here; details: for Tail-Flick Analgesia (latency to flick tail): each animal
Procedure: For Tail-Flick Analgesia Testing, the animal was placed on top of the Tail-Flick monitor and gently held in place with a cotton towel. The tail of the animal was placed in a shallow groove lying between two sensors and over the top of a radiant heat wire. The Tail Flick monitor was activated, and the latency for the animal to flick its tail out of the groove and away from the heat source was recorded. The animal was returned to its home cage immediately following testing.

[8] = system: healthy adult male and female subjects; assay: Phase 1 studies of C105: safety and tolerability; type: in vivo, human
Description: Safety and tolerability assessments were changes in vital signs, ECGs, Holter monitoring, laboratory tests, physical examination and adverse events.

[9] = system: rats; assay: Spontaneous Object Recognition task, normal rats; details: 0.5 mg/kg immediately following training
Description: Apparatus for Object Recognition testing consisted of a plexiglass open field activity chamber, measuring 30 by 30 cm. A video camera was mounted on the wall above the chamber. Three plastic objects served as stimuli for the experiment. Two of the objects were identical to one another, and the third was different. Rats were individually habituated to the open-field box for three consecutive days. Habituation sessions were six minutes in duration. Twenty-four hours after the last day of habituation, a training session was conducted, in which two identical objects were placed in the open-field box, 10 cm from the back wall. The animal was placed into the box and was allowed to explore freely for a period of four minutes. Twenty-four hours after the training session, retention testing was conducted. During retention testing, the rat was placed back into the same activity box with one of the familiar objects used during the training session and a novel object that the rat had not seen before. The rat was allowed to explore the box and objects for a period of four minutes. Testing was conducted at the same time each day, and was videotaped for off-line analysis. Two discrimination indices, D1 and D2 were calculated in order to measure the strength of recognition memory. […]

Question: What does the source list for `C[C@H](N)Cc1ccccc1` [(S)-(+)-amphetamine, reference compound]?
Answer: IA performance of fornix animals compared with normal, saline injected animals ([1]; 2.0 mg/kg (FIG. 5)): not significantly different from normal, saline injected animals; IA performance of fornix lesion rats ([1]; 2.0 mg/kg, one hour before (FIG. 5)): appeared to improve the performance of the fornix lesion rats; dose that significantly improved performance on the passive avoidance task [2]: 2.0 mg/kg; locomotor activity [3]: clear and significant enhancement in locomotor activity; effects on activity [4]: profound increases in activity; latency to enter the dark side of the apparatus ([5]; 0.5 mg/kg, each animal, rank-ordered, 24 h retention): 65.0 seconds and 110.0 seconds and 153.0 seconds and 207.0 seconds (2×) and 2.0 seconds and 26.0 seconds and 38.0 seconds and 39.0 seconds and 63.0 seconds; latency to enter the dark side of the apparatus ([5]; 1.0 mg/kg, each animal, rank-ordered, 24 h retention): 34.0 s and 35.0 s and 47.0 s and 157.0 s and 263.0 s and 7.0 s and 17.0 s and 19.0 s and 25.0 s and 31.0 s; Inhibitory Avoidance performance, dose experiment ([5]; 2.0 mg/kg one hour before training (Tables 1 and 2)): appeared to enhance performance; IA performance of normal rats ([5]; 2.0 mg/kg, one hour before (FIG. 5), p<0.05 vs all other groups): dramatically enhanced the performance of normal rats; memory for the Inhibitory Avoidance task ([5]; 2.0 mg/kg, replicated experiments (FIG. 6), t(76)=3.416, p<0.001): significantly enhanced memory for the Inhibitory Avoidance task; latency to enter the dark side of the apparatus ([5]; 2.0 mg/kg, each animal, rank-ordered, 24 h retention): 190.0 s and 230.0 s and 245.0 s and 457.0 s and 517.0 s and 33.0 s and 63.0 s and 82.0 s and 84.0 s and 101.0 s; second retention test one week after the first retention test ([5]; no additional training or drug (FIG. 4), p<0.01): performed significantly better than rats that had received control injections of vehicle solution

Question: How did the “performance vs animals treated with scopolamine and saline” value ([6]; 1.0 mg/kg of C105, printed p>0.05) turn out when “(−)-1-methyl-2-phenylethylamine sulfate (2:1) [C105]” was run?
Answer: Its value is “performed significantly better than animals treated with scopolamine and saline”.

Question: What about the “alleviation of scopolamine impairment (step-through latency)” value ([6]; C105 i.p. immediately after training, log rank p=0.02 (FIG. 33)) of the same compound?
Answer: Its value is “effective at alleviating the impairment in the scopolamine-injected animals”.

Question: What about the “Tail-Flick Analgesia (latency to flick tail)” value (“Tail-Flick Analgesia” below) ([7]; 1.0 mg/kg one hour prior to testing) of the same compound?
Answer: Its value is 4.60 and 5.09 and 6.01 and 1.13 and 2.28 and 3.26 and 3.30 and 4.59.

Question: What about the “Tail-Flick Analgesia” value ([7]; 2.0 mg/kg one hour prior to testing) of the same compound?
Answer: The value was 3.89 and 3.96 and 4.45 and 2.46 and 2.68 and 2.79 and 3.05 and 3.56.

Question: What about the “Tail-Flick Analgesia” value ([7]; 4.0 mg/kg one hour prior to testing) of the same compound?
Answer: The value was 6.66 and 16.44 and 20.00 and 2.22 and 3.13 and 5.43 and 6.26 and 6.42.

Question: And the “Tail-Flick Analgesia” value ([7]; 8.0 mg/kg one hour prior to testing)?
Answer: The value was 6.54 and 7.39 and 14.43 and 3.13 and 4.67 and 4.72 and 5.22.

Question: What about the analgesic properties ([7]; 1.0 and 2.0 mg/kg one hour prior to testing) of the same compound?
Answer: The analgesic properties was “had no analgesic properties”.

Question: And the analgesic properties ([7]; 4.0 and 8.0 mg/kg one hour prior to testing, statistical significance at 4.0 mg/kg (p<0.0117))?
Answer: The analgesic properties was “did”.

Question: What about the “dose most effective in improving the performance of the fornix lesion animals” value ([1]; 0.5, 1.0, 2.0 and 4.0 mg/kg tested, one hour prior to testing (FIG. 12)) of the same compound?
Answer: Its value is 1.0 mg/kg.

Question: What about the “latency to enter the dark side of the apparatus” value (shortened to “latency to enter the dark side”) ([1]; 0.5 mg/kg) of the same compound?
Answer: Its value is 21.0 seconds (2×) and 32.0 seconds and 55.0 seconds and 65.0 seconds and 72.0 seconds and 209.0 seconds and 4.0 seconds and 7.0 seconds and 13.0 seconds.

Question: What about the “latency to enter the dark side” value ([1]; 1.0 mg/kg) of the same compound?
Answer: The value was 19.0 seconds (2×) and 166.0 seconds and 221.0 seconds and 246.0 seconds and 274.0 seconds and 314.0 seconds and 4.0 seconds and 7.0 seconds.

Question: What about the “latency to enter the dark side” value ([1]; 2.0 mg/kg) of the same compound?
Answer: Its value is 28.0 s and 30.0 s and 40.0 s and 70.0 s and 84.0 s and 153.0 s and 4.0 s and 17.0 s and 18.0 s and 26.0 s.

Question: And the “latency to enter the dark side” value ([1]; 4.0 mg/kg)?
Answer: Its value is 25.0 s and 28.0 s and 42.0 s and 96.0 s and 140.0 s and 159.0 s and 2.0 s and 8.0 s and 13.0 s and 21.0 s.

Question: What about the “dose that significantly improved performance on the passive avoidance task” value [2] of the same compound?
Answer: Its value is 0.5 mg/kg.

Question: What about the serious adverse events ([8]; single oral doses 5 to 45 mg) of the same compound?
Answer: The serious adverse events was “no reported serious adverse events”.

Question: What about the “most frequently reported adverse events” value ([8]; single oral doses 5 to 45 mg, generally mild) of the same compound?
Answer: The value was “dizziness, headache, insomnia, sinus tachycardia, supraventricular tachycardia and aptyalism”.

Question: What about the tolerability ([8]; single oral doses ranging from 5 to 45 mg) of the same compound?
Answer: Its tolerability is “well tolerated”.

Question: What about the “discrimination indices D1 and D2 vs saline” value ([9]; p<0.0147 and p<0.0024) of the same compound?
Answer: The value was “significantly higher”.

Question: What about the recognition memory ([9]; retention 24 h) of the same compound?
Answer: The recognition memory was “significantly improved recognition memory”.

Question: And the “latency to enter the dark side” value ([5]; 0.4 mg/kg one hour prior to training, each animal, rank-ordered)?
Answer: Its value is 231.0 s and 236.0 s and 250.0 s and 265.0 s and 629.0 s and 45.0 s and 62.0 s and 80.0 s and 87.0 s and 170.0 s.

Question: What about the “Inhibitory Avoidance performance, post training administration” value ([5]; 0.5 mg/kg immediately after training (FIG. 11), p<0.0402) of the same compound?
Answer: Its value is “significantly enhanced performance on the Inhibitory Avoidance task”.

Question: What about the “latency to enter the dark side” value ([5]; 1.0 mg/kg one hour prior to training, each animal, rank-ordered) of the same compound?
Answer: Its value is 343.0 s and 729.0 s and 813.0 s and 824.0 s and 900.0 s and 101.0 s and 115.0 s and 121.0 s and 202.0 s and 265.0 s.

Question: And the “Inhibitory Avoidance performance vs saline controls” value ([5]; 1.0 mg/kg one hour prior to training, post hoc p<0.05)?
Answer: The value was “performed significantly better than saline injected controls”.

Question: What about the “latency to enter the dark side” value ([5]; 2.0 mg/kg one hour prior to training, each animal, rank-ordered) of the same compound?
Answer: Its value is 230.0 seconds and 231.0 seconds and 253.0 seconds and 366.0 seconds and 384.0 seconds and 30.0 seconds and 59.0 seconds (2×) and 127.0 seconds and 137.0 seconds.

Question: And the “latency to enter the dark side” value ([5]; Control rats, 0.5 mg/kg, each animal (Table 7))?
Answer: Its value is 214.0 s and 240.0 s and 252.0 s and 271.0 s and 284.0 s.

Question: And the “latency to enter the dark side” value ([5]; Control rats, 1.0 mg/kg, each animal (Table 7))?
Answer: Its value is 106.0 s and 195.0 s and 197.0 s and 213.0 s and 238.0 s.

Question: And the “latency to enter the dark side” value ([5]; Control rats, 2.0 mg/kg, each animal (Table 7))?
Answer: The value was 86.0 s and 92.0 s and 106.0 s and 160.0 s and 192.0 s.

Question: And the “latency to enter the dark side” value ([5]; Control rats, 4.0 mg/kg, each animal (Table 7))?
Answer: The value was 83.0 seconds (2×) and 86.0 seconds and 98.0 seconds and 193.0 seconds.

Question: And the “mnemonic performance, Inhibitory Avoidance” value ([5]; doses lower than 0.5 mg/kg (0.1, […]) one hour prior to training)?
Answer: Its value is “not effective in improving the mnemonic performance”.

Question: What about the “latency to enter the dark side” value ([5]; low doses: 0.1 mg/kg one hour prior to training, each animal, 0.1 mg/kg) of the same compound?
Answer: Its value is 55.0 seconds (2×) and 110.0 seconds and 113.0 seconds and 124.0 seconds and 366.0 seconds and 37.0 seconds (2×) and 39.0 seconds (2×).
